From ChEMBL document CHEMBL4507294, “Data for DCP probe MSD-CYP11B2” (2021)

Key:
[1] = molecular target: Mitogen-activated protein kinase 13 (Homo sapiens) (UniProt O15264); details: Compound concentration 1000.0 nM
[2] = molecular target: RAF proto-oncogene serine/threonine-protein kinase (Homo sapiens) (UniProt P04049); details: Compound concentration 1000.0 nM
[3] = molecular target: Tyrosine-protein kinase ITK/TSK (Homo sapiens) (UniProt Q08881); details: Compound concentration 1000.0 nM
[4] = molecular target: Calcium/calmodulin-dependent protein kinase type 1D (Homo sapiens) (UniProt Q8IU85); details: Compound concentration 1000.0 nM
[5] = tested on: Tyrosine-protein kinase ABL1 (Homo sapiens), P00519 [H396P]; details: Compound concentration 1000.0 nM
[6] = molecular target: T1, Muscarinic acetylcholine receptor M2 (Homo sapiens) (UniProt P08172); details: Compound concentration 10.0 uM
T1 sequence (whole entry): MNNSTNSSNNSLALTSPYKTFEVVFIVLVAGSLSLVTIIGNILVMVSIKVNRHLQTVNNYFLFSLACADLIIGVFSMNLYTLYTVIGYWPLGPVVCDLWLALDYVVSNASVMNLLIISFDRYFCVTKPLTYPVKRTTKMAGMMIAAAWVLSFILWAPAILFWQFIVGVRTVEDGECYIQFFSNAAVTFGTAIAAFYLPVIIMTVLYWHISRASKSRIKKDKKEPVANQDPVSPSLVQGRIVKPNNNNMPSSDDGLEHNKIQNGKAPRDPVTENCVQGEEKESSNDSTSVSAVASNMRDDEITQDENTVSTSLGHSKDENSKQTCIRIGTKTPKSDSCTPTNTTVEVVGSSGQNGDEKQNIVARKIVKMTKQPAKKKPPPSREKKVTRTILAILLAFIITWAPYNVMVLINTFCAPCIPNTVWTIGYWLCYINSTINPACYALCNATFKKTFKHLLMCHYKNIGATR

[7] = molecular target: Mu-type opioid receptor (Homo sapiens) (UniProt P35372); details: Compound concentration 10.0 uM
[8] = molecular target: Alpha-1B adrenergic receptor (Homo sapiens) (UniProt P35368); details: Compound concentration 10.0 uM
[9] = molecular target: Serine/threonine-protein kinase ICK (Homo sapiens) (UniProt Q9UPZ9); details: Compound concentration 1000.0 nM
[10] = molecular target: Inhibitor of nuclear factor kappa-B kinase subunit beta (Homo sapiens) (UniProt O14920); details: Compound concentration 1000.0 nM
[11] = molecular target: Cyclin-dependent kinase 9 (Homo sapiens) (UniProt P50750); details: Compound concentration 1000.0 nM
Sequence of Cyclin-dependent kinase 9 (Homo sapiens) (P50750 whole entry): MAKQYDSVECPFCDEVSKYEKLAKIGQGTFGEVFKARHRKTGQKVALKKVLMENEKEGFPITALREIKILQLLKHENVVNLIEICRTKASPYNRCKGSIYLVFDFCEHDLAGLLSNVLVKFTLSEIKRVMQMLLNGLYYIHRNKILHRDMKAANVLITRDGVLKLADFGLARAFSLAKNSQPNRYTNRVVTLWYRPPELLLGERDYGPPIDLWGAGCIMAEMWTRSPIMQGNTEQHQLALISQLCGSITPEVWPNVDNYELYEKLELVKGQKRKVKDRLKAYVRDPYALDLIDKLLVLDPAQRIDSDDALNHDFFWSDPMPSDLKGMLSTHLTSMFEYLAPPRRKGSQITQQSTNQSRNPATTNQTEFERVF

[12] = molecular target: Interleukin-1 receptor-associated kinase 3 (Homo sapiens) (UniProt Q9Y616); details: Compound concentration 1000.0 nM
[13] = tested on: Tyrosine-protein kinase ABL1 (Homo sapiens), P00519 [M351T]; details: Compound concentration 1000.0 nM
[14] = molecular target: Rhodopsin kinase GRK1 (Homo sapiens) (UniProt Q15835); details: Compound concentration 1000.0 nM
[15] = molecular target: Protein kinase C eta type (Homo sapiens) (UniProt P24723); details: Compound concentration 1000.0 nM
[16] = molecular target: Ribosomal protein S6 kinase alpha-1 (Homo sapiens) (UniProt Q15418); details: Compound concentration 1000.0 nM
Sequence of Ribosomal protein S6 kinase alpha-1 (Homo sapiens) (Q15418 whole entry): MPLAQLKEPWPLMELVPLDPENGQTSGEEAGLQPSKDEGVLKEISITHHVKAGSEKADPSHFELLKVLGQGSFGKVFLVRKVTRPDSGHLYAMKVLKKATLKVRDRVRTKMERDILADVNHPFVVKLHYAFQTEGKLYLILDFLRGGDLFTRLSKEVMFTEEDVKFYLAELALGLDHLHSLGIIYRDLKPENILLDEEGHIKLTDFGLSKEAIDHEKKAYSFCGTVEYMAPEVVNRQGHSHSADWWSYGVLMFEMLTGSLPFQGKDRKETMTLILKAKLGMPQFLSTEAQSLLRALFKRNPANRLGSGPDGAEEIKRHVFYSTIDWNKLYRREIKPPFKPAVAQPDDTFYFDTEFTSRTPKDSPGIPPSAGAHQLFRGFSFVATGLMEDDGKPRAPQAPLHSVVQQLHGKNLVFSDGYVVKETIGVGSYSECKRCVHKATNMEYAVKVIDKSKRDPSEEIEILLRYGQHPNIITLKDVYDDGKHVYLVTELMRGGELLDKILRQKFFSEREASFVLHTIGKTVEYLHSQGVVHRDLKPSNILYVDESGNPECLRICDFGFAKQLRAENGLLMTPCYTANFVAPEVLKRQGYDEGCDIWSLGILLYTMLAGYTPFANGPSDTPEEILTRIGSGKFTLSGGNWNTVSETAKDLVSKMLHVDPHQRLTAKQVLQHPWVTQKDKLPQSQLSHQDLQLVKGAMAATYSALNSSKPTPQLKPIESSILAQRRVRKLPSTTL

[17] = molecular target: Serine/threonine-protein kinase 32C (Homo sapiens) (UniProt Q86UX6); details: Compound concentration 1000.0 nM
Sequence of Serine/threonine-protein kinase 32C (Homo sapiens) (Q86UX6 whole entry): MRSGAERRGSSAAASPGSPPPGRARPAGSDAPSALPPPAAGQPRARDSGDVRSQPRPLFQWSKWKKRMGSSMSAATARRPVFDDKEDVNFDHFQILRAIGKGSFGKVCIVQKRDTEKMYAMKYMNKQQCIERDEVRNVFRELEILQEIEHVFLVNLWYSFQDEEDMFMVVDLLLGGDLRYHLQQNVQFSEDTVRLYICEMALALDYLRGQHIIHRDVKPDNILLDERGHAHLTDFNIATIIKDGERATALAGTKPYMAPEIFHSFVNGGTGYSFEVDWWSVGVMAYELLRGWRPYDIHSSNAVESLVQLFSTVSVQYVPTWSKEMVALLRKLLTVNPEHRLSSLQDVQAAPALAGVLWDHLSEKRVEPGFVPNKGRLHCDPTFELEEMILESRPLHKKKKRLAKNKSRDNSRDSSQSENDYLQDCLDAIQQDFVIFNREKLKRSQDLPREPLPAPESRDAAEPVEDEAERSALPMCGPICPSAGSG

[18] = molecular target: Megakaryocyte-associated tyrosine-protein kinase (Homo sapiens) (UniProt P42679); details: Compound concentration 1000.0 nM
[19] = molecular target: Ephrin type-A receptor 2 (Homo sapiens) (UniProt P29317); details: Compound concentration 1000.0 nM
Sequence of Ephrin type-A receptor 2 (Homo sapiens) (P29317 whole entry): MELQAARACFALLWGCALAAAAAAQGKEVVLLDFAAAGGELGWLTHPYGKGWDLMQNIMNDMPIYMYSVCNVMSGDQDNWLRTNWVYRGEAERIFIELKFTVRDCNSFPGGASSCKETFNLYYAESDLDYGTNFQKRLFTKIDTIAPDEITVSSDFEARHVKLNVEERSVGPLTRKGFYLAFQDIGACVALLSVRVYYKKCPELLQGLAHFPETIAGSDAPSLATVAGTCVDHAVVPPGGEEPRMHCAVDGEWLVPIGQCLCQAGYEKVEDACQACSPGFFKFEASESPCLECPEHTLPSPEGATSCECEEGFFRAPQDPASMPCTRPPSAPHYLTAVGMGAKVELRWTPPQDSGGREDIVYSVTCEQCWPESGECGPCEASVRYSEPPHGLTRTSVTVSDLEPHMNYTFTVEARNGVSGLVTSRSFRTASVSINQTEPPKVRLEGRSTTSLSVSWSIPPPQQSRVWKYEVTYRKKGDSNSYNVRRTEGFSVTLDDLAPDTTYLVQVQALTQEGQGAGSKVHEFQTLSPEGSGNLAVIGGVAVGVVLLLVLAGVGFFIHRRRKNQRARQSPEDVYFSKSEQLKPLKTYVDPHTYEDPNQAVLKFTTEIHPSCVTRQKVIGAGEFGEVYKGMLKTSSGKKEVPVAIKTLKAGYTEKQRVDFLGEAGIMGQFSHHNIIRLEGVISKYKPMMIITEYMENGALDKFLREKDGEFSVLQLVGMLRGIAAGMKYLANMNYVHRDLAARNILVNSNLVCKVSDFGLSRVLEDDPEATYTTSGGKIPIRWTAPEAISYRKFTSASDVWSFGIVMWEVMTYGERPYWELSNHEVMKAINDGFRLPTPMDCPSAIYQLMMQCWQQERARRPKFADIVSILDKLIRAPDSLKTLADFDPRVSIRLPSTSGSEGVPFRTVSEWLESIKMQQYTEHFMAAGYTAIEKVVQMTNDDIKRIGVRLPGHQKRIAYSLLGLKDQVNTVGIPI

[20] = tested on: Epidermal growth factor receptor (Homo sapiens), P00533 [G719S]; details: Compound concentration 1000.0 nM
[21] = molecular target: Casein kinase I isoform gamma-3 (Homo sapiens) (UniProt Q9Y6M4); details: Compound concentration 1000.0 nM
Sequence of Casein kinase I isoform gamma-3 (Homo sapiens) (Q9Y6M4 whole entry, looked up, canonical isoform): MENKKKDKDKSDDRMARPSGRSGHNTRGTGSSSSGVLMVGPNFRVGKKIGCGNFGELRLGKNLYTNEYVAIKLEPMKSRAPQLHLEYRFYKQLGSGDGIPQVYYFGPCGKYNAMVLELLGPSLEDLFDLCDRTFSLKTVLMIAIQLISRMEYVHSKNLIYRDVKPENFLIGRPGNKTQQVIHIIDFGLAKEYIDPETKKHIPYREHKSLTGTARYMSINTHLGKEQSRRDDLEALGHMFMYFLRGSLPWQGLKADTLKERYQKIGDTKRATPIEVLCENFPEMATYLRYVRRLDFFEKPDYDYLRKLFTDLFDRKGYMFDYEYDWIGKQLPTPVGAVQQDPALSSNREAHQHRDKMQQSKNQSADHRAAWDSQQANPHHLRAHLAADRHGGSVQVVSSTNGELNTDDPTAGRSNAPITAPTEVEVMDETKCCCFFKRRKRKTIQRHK

[22] = molecular target: Sigma intracellular receptor 2 (Homo sapiens) (UniProt Q5BJF2); details: Compound concentration 10.0 uM
[23] = molecular target: Tyrosine-protein kinase Fgr (Homo sapiens) (UniProt P09769); details: Compound concentration 1000.0 nM
Sequence of Tyrosine-protein kinase Fgr (Homo sapiens) (P09769 2-529 limits assumed): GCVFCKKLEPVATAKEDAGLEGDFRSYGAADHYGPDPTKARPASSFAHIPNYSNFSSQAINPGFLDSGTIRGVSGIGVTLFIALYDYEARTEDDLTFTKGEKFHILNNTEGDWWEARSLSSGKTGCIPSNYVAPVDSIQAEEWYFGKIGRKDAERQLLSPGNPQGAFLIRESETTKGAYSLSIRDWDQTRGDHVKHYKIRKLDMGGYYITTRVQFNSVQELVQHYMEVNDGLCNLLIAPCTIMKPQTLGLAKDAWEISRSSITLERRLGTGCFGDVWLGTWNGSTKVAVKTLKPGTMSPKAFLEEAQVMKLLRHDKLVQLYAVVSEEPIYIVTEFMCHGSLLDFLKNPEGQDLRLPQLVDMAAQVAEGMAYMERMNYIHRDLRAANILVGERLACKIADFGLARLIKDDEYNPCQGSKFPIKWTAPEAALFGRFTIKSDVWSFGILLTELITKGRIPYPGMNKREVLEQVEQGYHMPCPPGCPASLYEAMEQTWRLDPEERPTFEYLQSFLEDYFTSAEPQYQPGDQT

[24] = molecular target: Aurora kinase A (Homo sapiens) (UniProt O14965); details: Compound concentration 1000.0 nM
[25] = molecular target: Homeodomain-interacting protein kinase 4 (Homo sapiens) (UniProt Q8NE63); details: Compound concentration 1000.0 nM
[26] = molecular target: Myosin light chain kinase (Homo sapiens) (UniProt Q32MK0); details: Compound concentration 1000.0 nM
[27] = molecular target: Cyclin-dependent kinase-like 1 (Homo sapiens) (UniProt Q00532); details: Compound concentration 1000.0 nM
[28] = tested on: Tyrosine-protein kinase ABL1 (Homo sapiens), P00519 [T315I]; details: Compound concentration 1000.0 nM
[29] = molecular target: RAC-alpha serine/threonine-protein kinase (Homo sapiens) (UniProt P31749); details: Compound concentration 1000.0 nM
[30] = molecular target: Ephrin type-A receptor 5 (Homo sapiens) (UniProt P54756); details: Compound concentration 1000.0 nM
[31] = molecular target: Tyrosine-protein kinase Blk (Homo sapiens) (UniProt P51451); details: Compound concentration 1000.0 nM
[32] = molecular target: Serine/threonine-protein kinase ULK1 (Homo sapiens) (UniProt O75385); details: Compound concentration 1000.0 nM
[33] = molecular target: Mitogen-activated protein kinase 14 (Homo sapiens) (UniProt Q16539); details: Compound concentration 1000.0 nM
Sequence of Mitogen-activated protein kinase 14 (Homo sapiens) (Q16539 whole entry): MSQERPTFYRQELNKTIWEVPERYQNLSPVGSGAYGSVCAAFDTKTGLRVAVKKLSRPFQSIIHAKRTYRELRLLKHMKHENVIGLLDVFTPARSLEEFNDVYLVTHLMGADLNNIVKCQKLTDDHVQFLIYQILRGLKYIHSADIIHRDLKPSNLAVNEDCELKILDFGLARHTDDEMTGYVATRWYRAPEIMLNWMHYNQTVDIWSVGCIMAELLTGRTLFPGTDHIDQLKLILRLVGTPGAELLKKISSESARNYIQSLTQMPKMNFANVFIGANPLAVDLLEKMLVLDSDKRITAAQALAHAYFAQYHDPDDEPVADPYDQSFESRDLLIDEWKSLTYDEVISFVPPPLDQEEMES

[34] = tested on: Receptor-type tyrosine-protein kinase FLT3 (Homo sapiens), P36888 [K663Q]; details: Compound concentration 1000.0 nM
[35] = molecular target: Tyrosine-protein kinase receptor Tie-1 (Homo sapiens) (UniProt P35590); details: Compound concentration 1000.0 nM
[36] = tested on: Serine/threonine-protein kinase B-raf (Homo sapiens), P15056 [V600E]; details: Compound concentration 1000.0 nM
[37] = molecular target: Serine/threonine-protein kinase NIM1 (Homo sapiens) (UniProt Q8IY84); details: Compound concentration 1000.0 nM
Sequence of Serine/threonine-protein kinase NIM1 (Homo sapiens) (Q8IY84 whole entry, canonical isoform): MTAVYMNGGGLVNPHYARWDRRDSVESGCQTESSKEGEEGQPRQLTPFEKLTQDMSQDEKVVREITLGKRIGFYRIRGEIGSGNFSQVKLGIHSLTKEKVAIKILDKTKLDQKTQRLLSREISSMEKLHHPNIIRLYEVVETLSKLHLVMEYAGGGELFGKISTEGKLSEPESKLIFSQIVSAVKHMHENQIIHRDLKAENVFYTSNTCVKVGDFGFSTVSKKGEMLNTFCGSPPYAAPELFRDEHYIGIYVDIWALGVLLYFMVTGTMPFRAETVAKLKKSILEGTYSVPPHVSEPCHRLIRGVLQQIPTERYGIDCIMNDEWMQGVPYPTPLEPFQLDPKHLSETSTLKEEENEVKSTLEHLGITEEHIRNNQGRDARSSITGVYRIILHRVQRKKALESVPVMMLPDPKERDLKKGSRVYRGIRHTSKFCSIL

[38] = molecular target: Phosphorylase b kinase gamma catalytic chain, skeletal muscle/heart isoform (Homo sapiens) (UniProt Q16816); details: Compound concentration 1000.0 nM
[39] = molecular target: Calcium/calmodulin-dependent protein kinase type 1G (Homo sapiens) (UniProt Q96NX5); details: Compound concentration 1000.0 nM

Sequence of Tyrosine-protein kinase ITK/TSK (Homo sapiens) (Q08881 whole entry): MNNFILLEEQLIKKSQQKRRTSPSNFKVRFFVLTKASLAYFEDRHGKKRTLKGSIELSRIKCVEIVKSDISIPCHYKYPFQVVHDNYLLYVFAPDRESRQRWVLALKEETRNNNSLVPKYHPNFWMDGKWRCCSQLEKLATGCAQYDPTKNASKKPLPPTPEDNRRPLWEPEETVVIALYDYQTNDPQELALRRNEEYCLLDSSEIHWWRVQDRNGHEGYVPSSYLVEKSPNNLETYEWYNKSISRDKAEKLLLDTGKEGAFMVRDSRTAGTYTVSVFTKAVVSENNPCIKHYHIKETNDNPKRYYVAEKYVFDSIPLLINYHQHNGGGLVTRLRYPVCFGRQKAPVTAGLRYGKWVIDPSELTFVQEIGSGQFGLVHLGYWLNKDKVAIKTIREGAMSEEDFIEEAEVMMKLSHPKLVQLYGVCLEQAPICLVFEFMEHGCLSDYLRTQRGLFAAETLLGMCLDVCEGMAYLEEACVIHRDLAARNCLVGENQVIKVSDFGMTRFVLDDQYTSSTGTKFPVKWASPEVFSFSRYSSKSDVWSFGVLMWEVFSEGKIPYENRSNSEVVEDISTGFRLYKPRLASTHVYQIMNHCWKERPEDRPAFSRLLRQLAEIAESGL

CC(C)(O)c1cncc(-c2nc3ccc(F)cc3n2C2CC2)c1 [MSD-CYP11B2]
inactive: residual activity [1] 100% | residual activity [2] 83% | residual activity [3] 100% | residual activity [4] 100% | residual activity [5] 85% | inhibition [6] -0.1% | inhibition [7] 0.18% | inhibition [8] 23.8% | residual activity [9] 100% | residual activity [10] 100% | residual activity [11] 100% | residual activity [12] 100% | residual activity [13] 100% | residual activity [14] 100% | residual activity [15] 98% | residual activity [16] 100% | residual activity [17] 100% | residual activity [18] 100% | residual activity [19] 100% | residual activity [20] 100% | residual activity [21] 100% | inhibition [22] 22.7% | residual activity [23] 100% | residual activity [24] 94% | residual activity [25] 100% | residual activity [26] 87% | residual activity [27] 100% | residual activity [28] 100% | residual activity [29] 100% | residual activity [30] 100% | residual activity [31] 98% | residual activity [32] 100% | residual activity [33] 100% | residual activity [34] 100% | residual activity [35] 100% | residual activity [36] 98% | residual activity [37] 100% | residual activity [38] 100% | residual activity [39] 100%

FC(F)(F)c1ccc2c(c1)nc(-c1cccnc1)n2C1CC1 [MSD-CYP11B2-Negative-control]
inactive: residual activity [1] 100% | residual activity [2] 76% | residual activity [3] 100% | residual activity [4] 100% | residual activity [5] 82% | inhibition [6] 2.99% | inhibition [7] -2.5% | inhibition [8] 11.7% | residual activity [9] 100% | residual activity [10] 100% | residual activity [11] 100% | residual activity [12] 100% | residual activity [13] 100% | residual activity [14] 100% | residual activity [15] 100% | residual activity [16] 100% | residual activity [17] 100% | residual activity [18] 100% | residual activity [19] 100% | residual activity [20] 93% | residual activity [21] 100% | inhibition [22] 26.5% | residual activity [23] 100% | residual activity [24] 98% | residual activity [25] 100% | residual activity [26] 100% | residual activity [27] 91% | residual activity [28] 100% | residual activity [29] 100% | residual activity [30] 96% | residual activity [31] 96% | residual activity [32] 100% | residual activity [33] 99% | residual activity [34] 100% | residual activity [35] 100% | residual activity [36] 100% | residual activity [37] 100% | residual activity [38] 100% | residual activity [39] 100%
